In US20220145396A1, “METHOD OF IDENTIFYING PATIENTS WITH BORTEZOMIB RESISTANT MULTIPLE MYELOMA AND OTHER BLOOD DISEASES” (Max-Planck-Gesellschaft zur Förderung der Wissenschaften …, priority 2019, published 2022):
Entries after “also recorded” stand apart in the source; their conditions may differ.

What was measured:
[1] = test system: KMS-18 T21A mutant cell line; experiment: XTT viability assay of KMS-18 multiple myeloma cell line with spontaneous PSMB5 T21A substitution; assay type: cell-based, human; settings: KMS-18 T21A mutant cells, heterozygous
Method: (§1) Cell viability was analyzed using the XTT cell proliferation Kit II (Roche Diagnostics, Basel, Switzerland) according to the manufacturer's instructions. Drug treatment was started 24 h after cell seeding. The absorbance was measured after 72 h of treatment and normalized to the respective untreated control cells.
KMS-18 and KMS-27 cells, having a wild type PSMB5 locus, were subjected to a 4-week selection on bortezomib without the use of mutagens.
Resistance of these two mutant cell lines to the different proteasome inhibitors was investigated using the XTT viability assay.

[2] = test system: bortezomib resistant PSMB5 mutant cell lines; experiment: XTT cell viability assay of bortezomib resistant PSMB5 mutant clones (AN3-12 mouse haploid embryonic stem cells) treated with proteasome inhibitors; assay type: cell-based
Method: AN3-12 mouse haploid embryonic stem cells were cultured as previously described (Elling et al., 2011). In brief, the cells were grown in DMEM high glucose (Sigma-Aldrich, St. Louis, Mo.) supplemented with 15% fetal bovine serum, penicillin/streptomycin, glutamine, non-essential amino acids, sodium pyruvate (all Thermo Fisher Scientific, Waltham, Mass.), β-mercaptoethanol, and Leukemia-Inhibitor Factor (LIF) (both Merck Millipore, Darmstadt, Germany) on non-coated tissue culture plates.
Chemical mutagenesis was performed as previously described (Horn et al., 2011). In brief, AN3-12 cells were transferred to 15 ml tubes, incubated with 0.1 mg/ml ENU for two hours at room temperature, washed five times with LIF-free medium, and plated on culture dishes. The cells were selected with 25 nM Bortezomib (Selleckchem, Houston, Tex.) for three weeks, starting 24 h after mutagenesis. Resistant clones were transferred to 24-well plates and the Psmb5 locus was analyzed. DNA was extracted (DNA extraction solution, Epicentre, Biotechnologies, Madison, Wis.) and exon 2 or exon 3 of the Psmb5 genewere specifically amplified by PCR using the primers msPSMB5exon2_fwd ([…]), msPSMB5exon2_rev ([…]), msPSMB5exon3_fwd ([…]), and msPSMB5exon3_rev ([…]). The used PSMB5 transcript is PSMB5-202, transcript identification ID ENST00000361611.11, coding sequence: CCDS9584, as available on Ensemble Biomart database. Sanger sequencing was performed at Eurofins Genomics GmbH (Ebersberg, Germany).
as §1

[3] = T21 substitutions, 15 nM carfilzomib or 75 nM oprozomib

| SMILES | response in XTT viability assay [1] | resistance of mutant cell lines compared to the wildtype control (viability assay) ([2]; 10 nM bortezomib, 72 h, identified Psmb5 mutant clones vs WT) | response in cell viability assay ([2]; T21A substitution) | resistance in cell viability assay ([2]; 15 nM carfilzomib, the different mutants) | response in cell viability assay [2, 3] | response in cell viability assay (clustering, FIG. 12) ([2]; substitutions in positions C63, S130, or Y169) | resistance in cell viability assay ([2]; 50 nM ixazomib, all bortezomib resistant PSMB5 mutant cell lines) | resistance in cell viability assay ([2]; 75 nM oprozomib, the different mutants) |
| --- | --- | --- | --- | --- | --- | --- | --- | --- |
| CC(C)C[C@H](NC(=O)[C@H](Cc1ccccc1)NC(=O)c1cnccn1)B(O)O [bortezomib, [(1R)-3-Methyl-1-[[(2S)-1-oxo-3-phenyl-2-[(pyrazinylcarbonyl)amino]propyl]amino]butyl]boronic acid] | resistance | up to 2 fold | resistance |  |  |  |  |  |
| CC(C)C[C@H](NC(=O)[C@H](CCc1ccccc1)NC(=O)CN1CCOCC1)C(=O)N[C@@H](Cc1ccccc1)C(=O)N[C@@H](CC(C)C)C(=O)[C@@]1(C)CO1 [carfilzomib] | sensitive |  | hypersensitive | varying degrees of resistance; also recorded: highly variable | hypersensitivity | partially maintained response |  |  |
| CC(C)C[C@H](NC(=O)CNC(=O)c1cc(Cl)ccc1Cl)B(O)O [ixazomib] | resistance |  | resistance |  |  |  | resistant |  |
| COC[C@H](NC(=O)c1cnc(C)s1)C(=O)N[C@@H](COC)C(=O)N[C@@H](Cc1ccccc1)C(=O)[C@@]1(C)CO1 [oprozomib] | sensitive |  | hypersensitive |  | hypersensitivity |  |  | varying degrees of resistance; also recorded: highly variable |
